Experimental data as given in PubChem BioAssay (NCI).
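Tested at 5 concentrations; 48 h exposure; 96-well plates; endpoints linearly interpolated, else capped at highest concentration. At the TGI there is no net growth.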

Tests used:
Experiment in all cases: NCI anticancer screen, dose series, 48 h
[1] = system: 786-0 renal
[2] = system: A498 renal
[3] = system: A549 NSCLC
[4] = system: ACHN renal
[5] = system: BT-549 breast
[6] = system: CCRF-CEM leukemia
[7] = system: COLO 205 colon
[8] = system: DU-145 prostate
[9] = system: HCC-2998 colon
[10] = system: HCT-116 colon
[11] = system: HCT-15 colon
[12] = system: HL-60(TB) leukemia
[13] = system: HOP-62 NSCLC
[14] = system: HOP-92 NSCLC
[15] = system: HS 578T breast
[16] = system: HT29 colon
[17] = system: IGROV1 ovarian
[18] = system: K-562 leukemia
[19] = system: KM12 colon
[20] = system: LOX IMVI melanoma
[21] = system: M14 melanoma
[22] = system: MALME-3M melanoma
[23] = system: MCF7 breast
[24] = system: MDA-MB-231 breast
[25] = system: MDA-MB-435
[26] = system: MDA-N
[27] = system: MOLT-4 leukemia
[28] = system: NCI-H226 lung
[29] = system: NCI-H23 lung
[30] = system: NCI-H460 lung
[31] = system: NCI-H522 lung
[32] = system: NCI/ADR-RES ovarian
[33] = system: OVCAR-3 ovarian
[34] = system: OVCAR-4 ovarian
[35] = system: OVCAR-5 ovarian
[36] = system: OVCAR-8 ovarian
[37] = system: PC-3 prostate
[38] = system: RPMI-8226 leukemia
[39] = system: RXF 393 renal
[40] = system: SF-268 CNS
[41] = system: SF-295 CNS
[42] = system: SF-539 CNS
[43] = system: SK-MEL-28 melanoma
[44] = system: SK-MEL-5 melanoma
[45] = system: SK-OV-3 ovarian
[46] = system: SN12C renal
[47] = system: SNB-19 CNS
[48] = system: SNB-75 CNS
[49] = system: SR leukemia
[50] = system: SW-620 colon
[51] = system: T-47D breast
[52] = system: TK-10 renal
[53] = system: U251 CNS
[54] = system: UACC-62 melanoma
[55] = system: UO-31 renal
[56] = system: CAKI-1 renal
[57] = system: EKVX NSCLC
[58] = system: SK-MEL-2 melanoma
[59] = system: UACC-257 melanoma

SMILES: CN(c1cn(C2CC[C@@H](CO)O2)c(=O)[nH]c1=O)C1CCCCC1 (stereo partly drawn)
- TGI [1]: > 100 µM
- TGI [2]: > 100 µM
- TGI [3]: > 100 µM
- TGI [4]: > 100 µM
- TGI [5]: > 100 µM
- TGI [6]: > 100 µM
- TGI [7]: > 100 µM
- TGI [8]: > 100 µM
- TGI [9]: > 100 µM
- TGI [10]: > 100 µM
- TGI [11]: > 100 µM
- TGI [12]: > 100 µM
- TGI [13]: > 100 µM
- TGI [14]: > 100 µM
- TGI [15]: > 100 µM
- TGI [16]: > 100 µM
- TGI [17]: > 100 µM
- TGI [18]: > 100 µM
- TGI [19]: > 100 µM
- TGI [20]: > 100 µM
- TGI [21]: > 100 µM
- TGI [22]: > 100 µM
- TGI [23]: > 100 µM
- TGI [24]: > 100 µM
- TGI [25]: > 100 µM
- TGI [26]: > 100 µM
- TGI [27]: > 100 µM
- TGI [28]: > 100 µM
- TGI [29]: > 100 µM
- TGI [30]: > 100 µM
- TGI [31]: > 100 µM
- TGI [32]: > 100 µM
- TGI [33]: > 100 µM
- TGI [34]: > 100 µM
- TGI [35]: > 100 µM
- TGI [36]: > 100 µM
- TGI [37]: > 100 µM
- TGI [38]: > 100 µM
- TGI [39]: > 100 µM
- TGI [40]: > 100 µM
- TGI [41]: > 100 µM
- TGI [42]: > 100 µM
- TGI [43]: > 100 µM
- TGI [44]: > 100 µM
- TGI [45]: > 100 µM
- TGI [46]: > 100 µM
- TGI [47]: > 100 µM
- TGI [48]: > 100 µM
- TGI [49]: > 100 µM
- TGI [50]: > 100 µM
- TGI [51]: > 100 µM
- TGI [52]: > 100 µM
- TGI [53]: > 100 µM
- TGI [54]: > 100 µM
- TGI [55]: > 100 µM

SMILES: COc1ccc(/C=C2\CCC/C(=C\c3ccc(O)c(CN4CCCCC4)c3)C2=O)cc1
- TGI [1]: 19.3 µM
- TGI [2]: 47.1 µM
- TGI [3]: 52.8 µM
- TGI [4]: > 82.7 µM
- TGI [5]: 37.7 µM
- TGI [56]: > 74.6 µM
- TGI [6]: > 100 µM
- TGI [7]: 46.9 µM
- TGI [8]: 36.9 µM
- TGI [57]: 51.7 µM
- TGI [9]: 33.4 µM
- TGI [10]: 13.1 µM
- TGI [11]: 36 µM
- TGI [12]: > 100 µM
- TGI [13]: > 56.3 µM
- TGI [14]: 51.6 µM
- TGI [15]: > 100 µM
- TGI [16]: 19.9 µM
- TGI [17]: 41.5 µM
- TGI [18]: > 100 µM
- TGI [20]: 26.1 µM
- TGI [21]: 35.3 µM
- TGI [22]: 49 µM
- TGI [23]: 28.5 µM
- TGI [24]: 35.2 µM
- TGI [25]: 39.6 µM
- TGI [26]: 37.2 µM
- TGI [27]: 40.7 µM
- TGI [28]: 45.8 µM
- TGI [29]: 41.3 µM
- TGI [30]: 44.8 µM
- TGI [31]: 19.1 µM
- TGI [32]: 32.8 µM
- TGI [33]: 46.3 µM
- TGI [34]: > 79.5 µM
- TGI [35]: 61.3 µM
- TGI [36]: 13.6 µM
- TGI [37]: 42.7 µM
- TGI [38]: > 43.8 µM
- TGI [39]: 41 µM
- TGI [40]: 13.1 µM
- TGI [41]: 36.4 µM
- TGI [42]: 16.1 µM
- TGI [58]: 43 µM
- TGI [43]: 42.2 µM
- TGI [44]: 39.5 µM
- TGI [45]: 40.7 µM
- TGI [46]: 36.5 µM
- TGI [47]: 70.2 µM
- TGI [48]: > 71.8 µM
- TGI [49]: 19.8 µM
- TGI [50]: 28.8 µM
- TGI [51]: > 73.8 µM
- TGI [52]: 52.1 µM
- TGI [53]: 33.9 µM
- TGI [59]: 40.4 µM
- TGI [54]: 36.1 µM
- TGI [55]: 39.9 µM
